{"source": "PubChem BioAssay AID2060613", "about": "(Molecular Pharmacology Branch, DTP, NCI, 2025);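 also: spheroids exposed to the drug combinations for seven days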;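 as to viability, T/C: percent viability relative to DMSO vehicle control wells taken as 100%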", "system": "233499-124-R-J3-PDC complex spheroid viability", "assay": "Anticancer human tumor 233499-124-R-J3-PDC patient-derived colon adenocarcinoma cell line growth inhibition [CLK]", "conditions": "for IC50: curve of first compound; for viability, T/C: stronger effect = lower value", "outline": "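Multi-cell-type spheroids combined patient-derived tumor cells with HUVEC endothelial cells and human mesenchymal stem cells. Paired agents were dosed in half-log steps down from about clinical Cmax, or from 10 microM where Cmax was unknown.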", "key": {"[1]": {"conditions": "second compound 0.0316 µM, first compound 0.0316 µM"}, "[2]": {"conditions": "second compound 0.0316 µM, first compound 0.1 µM"}, "[3]": {"conditions": "second compound 0.0316 µM, first compound 0.316 µM"}, "[4]": {"conditions": "second compound 0.0316 µM, first compound 1 µM"}, "[5]": {"conditions": "second compound 0.0316 µM, first compound 3.16 µM"}, "[6]": {"conditions": "second compound 0.0316 µM, first compound 10 µM"}, "[7]": {"conditions": "second compound 0.1 µM, first compound 0.0316 µM"}, "[8]": {"conditions": "second compound 0.1 µM, first compound 0.1 µM"}, "[9]": {"conditions": "second compound 0.1 µM, first compound 0.316 µM"}, "[10]": {"conditions": "second compound 0.1 µM, first compound 1 µM"}, "[11]": {"conditions": "second compound 0.1 µM, first compound 3.16 µM"}, "[12]": {"conditions": "second compound 0.1 µM, first compound 10 µM"}, "[13]": {"conditions": "second compound 0.316 µM, first compound 0.0316 µM"}, "[14]": {"conditions": "second compound 0.316 µM, first compound 0.1 µM"}, "[15]": {"conditions": "second compound 0.316 µM, first compound 0.316 µM"}, "[16]": {"conditions": "second compound 0.316 µM, first compound 1 µM"}, "[17]": {"conditions": "second compound 0.316 µM, first compound 3.16 µM"}, "[18]": {"conditions": "second compound 0.316 µM, first compound 10 µM"}, "[19]": {"conditions": "second compound 1 µM, first compound 0.0316 µM"}, "[20]": {"conditions": "second compound 1 µM, first compound 0.1 µM"}, "[21]": {"conditions": "second compound 1 µM, first compound 0.316 µM"}, "[22]": {"conditions": "second compound 1 µM, first compound 1 µM"}, "[23]": {"conditions": "second compound 1 µM, first compound 3.16 µM"}, "[24]": {"conditions": "second compound 1 µM, first compound 10 µM"}, "[25]": {"conditions": "second compound 3.16 µM, first compound 0.0316 µM"}, "[26]": {"conditions": "second compound 3.16 µM, first compound 0.1 µM"}, "[27]": {"conditions": "second compound 3.16 µM, first compound 0.316 µM"}, "[28]": {"conditions": "second compound 3.16 µM, first compound 1 µM"}, "[29]": {"conditions": "second compound 3.16 µM, first compound 3.16 µM"}, "[30]": {"conditions": "second compound 3.16 µM, first compound 10 µM"}, "[31]": {"conditions": "second compound 10 µM, first compound 0.0316 µM"}, "[32]": {"conditions": "second compound 10 µM, first compound 0.1 µM"}, "[33]": {"conditions": "second compound 10 µM, first compound 0.316 µM"}, "[34]": {"conditions": "second compound 10 µM, first compound 1 µM"}, "[35]": {"conditions": "second compound 10 µM, first compound 3.16 µM"}, "[36]": {"conditions": "second compound 10 µM, first compound 10 µM"}}}
{"smiles": "Nc1ccn(C2OC(CO)C(O)C2(F)F)c(=O)n1", "note": "(centres undefined) + CN1CCN(c2cc(C(=O)Nc3cc4cc(-c5cnn(C)c5)ccc4cn3)ccn2)CC1", "values": [{"measurement": "IC50", "setting": "second compound 0.0316 µM", "value": 313, "unit": "nM"}, {"measurement": "IC50", "setting": "second compound 0.1 µM", "value": 217, "unit": "nM"}, {"measurement": "IC50", "setting": "second compound 0.316 µM", "value": 168, "unit": "nM"}, {"measurement": "IC50", "setting": "second compound 1 µM", "value": "< 31.6", "unit": "nM"}, {"measurement": "IC50", "setting": "second compound 3.16 µM", "value": "< 31.6", "unit": "nM"}, {"measurement": "IC50", "setting": "second compound 10 µM", "value": "< 31.6", "unit": "nM"}, {"measurement": "viability, T/C", "setting": "[1]", "value": 80, "unit": "%"}, {"measurement": "viability, T/C", "setting": "[2]", "value": 95.4, "unit": "%"}, {"measurement": "viability, T/C", "setting": "[3]", "value": 49.6, "unit": "%"}, {"measurement": "viability, T/C", "setting": "[4]", "value": 34.2, "unit": "%"}, {"measurement": "viability, T/C", "setting": "[5]", "value": 37, "unit": "%"}, {"measurement": "viability, T/C", "setting": "[6]", "value": 27.2, "unit": "%"}, {"measurement": "viability, T/C", "setting": "[7]", "value": 101, "unit": "%"}, {"measurement": "viability, T/C", "setting": "[8]", "value": 92.1, "unit": "%"}, {"measurement": "viability, T/C", "setting": "[9]", "value": 29.6, "unit": "%"}, {"measurement": "viability, T/C", "setting": "[10]", "value": 19.2, "unit": "%"}, {"measurement": "viability, T/C", "setting": "[11]", "value": 23.2, "unit": "%"}, {"measurement": "viability, T/C", "setting": "[12]", "value": 21.4, "unit": "%"}, {"measurement": "viability, T/C", "setting": "[13]", "value": 101, "unit": "%"}, {"measurement": "viability, T/C", "setting": "[14]", "value": 71, "unit": "%"}, {"measurement": "viability, T/C", "setting": "[15]", "value": 24.7, "unit": "%"}, {"measurement": "viability, T/C", "setting": "[16]", "value": 7.57, "unit": "%"}, {"measurement": "viability, T/C", "setting": "[17]", "value": 12.1, "unit": "%"}, {"measurement": "viability, T/C", "setting": "[18]", "value": 5.63, "unit": "%"}, {"measurement": "viability, T/C", "setting": "[19]", "value": 1.31, "unit": "%"}, {"measurement": "viability, T/C", "setting": "[20]", "value": 0.86, "unit": "%"}, {"measurement": "viability, T/C", "setting": "[21]", "value": 0.41, "unit": "%"}, {"measurement": "viability, T/C", "setting": "[22]", "value": 1.47, "unit": "%"}, {"measurement": "viability, T/C", "setting": "[23]", "value": 0.37, "unit": "%"}, {"measurement": "viability, T/C", "setting": "[24]", "value": 0.46, "unit": "%"}, {"measurement": "viability, T/C", "setting": "[25]", "value": 0.7, "unit": "%"}, {"measurement": "viability, T/C", "setting": "[26]", "value": 0.69, "unit": "%"}, {"measurement": "viability, T/C", "setting": "[27]", "value": 0.53, "unit": "%"}, {"measurement": "viability, T/C", "setting": "[28]", "value": 0.46, "unit": "%"}, {"measurement": "viability, T/C", "setting": "[29]", "value": 0.48, "unit": "%"}, {"measurement": "viability, T/C", "setting": "[30]", "value": 0.62, "unit": "%"}, {"measurement": "viability, T/C", "setting": "[31]", "value": 0.45, "unit": "%"}, {"measurement": "viability, T/C", "setting": "[32]", "value": 0.5, "unit": "%"}, {"measurement": "viability, T/C", "setting": "[33]", "value": 0.68, "unit": "%"}, {"measurement": "viability, T/C", "setting": "[34]", "value": 0.58, "unit": "%"}, {"measurement": "viability, T/C", "setting": "[35]", "value": 0.44, "unit": "%"}, {"measurement": "viability, T/C", "setting": "[36]", "value": 0.38, "unit": "%"}]}
{"smiles": "CC(Nc1ccc2c(c1)OCCn1cc(N3C(=O)OCC3C(F)F)nc1-2)C(N)=O", "note": "(centres undefined) + CNC(=O)c1ccc(Nc2nc(OC3CCCC3)c3c(-c4ccc5nc(C)oc5c4)c[nH]c3n2)c(OC)c1", "values": [{"measurement": "IC50", "setting": "second compound 0.0316 µM", "value": "> 10000", "unit": "nM"}, {"measurement": "IC50", "setting": "second compound 0.1 µM", "value": 3880, "unit": "nM"}, {"measurement": "IC50", "setting": "second compound 0.316 µM", "value": 2810, "unit": "nM"}, {"measurement": "IC50", "setting": "second compound 1 µM", "value": 316, "unit": "nM"}, {"measurement": "IC50", "setting": "second compound 3.16 µM", "value": 624, "unit": "nM"}, {"measurement": "IC50", "setting": "second compound 10 µM", "value": 1080, "unit": "nM"}, {"measurement": "viability, T/C", "setting": "[1]", "value": 85.3, "unit": "%"}, {"measurement": "viability, T/C", "setting": "[2]", "value": 94.6, "unit": "%"}, {"measurement": "viability, T/C", "setting": "[3]", "value": 81, "unit": "%"}, {"measurement": "viability, T/C", "setting": "[4]", "value": 72.7, "unit": "%"}, {"measurement": "viability, T/C", "setting": "[5]", "value": 65.5, "unit": "%"}, {"measurement": "viability, T/C", "setting": "[6]", "value": 53.6, "unit": "%"}, {"measurement": "viability, T/C", "setting": "[7]", "value": 68.9, "unit": "%"}, {"measurement": "viability, T/C", "setting": "[8]", "value": 75.1, "unit": "%"}, {"measurement": "viability, T/C", "setting": "[9]", "value": 72.2, "unit": "%"}, {"measurement": "viability, T/C", "setting": "[10]", "value": 64.8, "unit": "%"}, {"measurement": "viability, T/C", "setting": "[11]", "value": 52.9, "unit": "%"}, {"measurement": "viability, T/C", "setting": "[12]", "value": 38.6, "unit": "%"}, {"measurement": "viability, T/C", "setting": "[13]", "value": 66.9, "unit": "%"}, {"measurement": "viability, T/C", "setting": "[14]", "value": 65.7, "unit": "%"}, {"measurement": "viability, T/C", "setting": "[15]", "value": 72.2, "unit": "%"}, {"measurement": "viability, T/C", "setting": "[16]", "value": 58.4, "unit": "%"}, {"measurement": "viability, T/C", "setting": "[17]", "value": 49.6, "unit": "%"}, {"measurement": "viability, T/C", "setting": "[18]", "value": 32.5, "unit": "%"}, {"measurement": "viability, T/C", "setting": "[19]", "value": 74.8, "unit": "%"}, {"measurement": "viability, T/C", "setting": "[20]", "value": 74.9, "unit": "%"}, {"measurement": "viability, T/C", "setting": "[21]", "value": 50, "unit": "%"}, {"measurement": "viability, T/C", "setting": "[22]", "value": 42.7, "unit": "%"}, {"measurement": "viability, T/C", "setting": "[23]", "value": 45.9, "unit": "%"}, {"measurement": "viability, T/C", "setting": "[24]", "value": 42.4, "unit": "%"}, {"measurement": "viability, T/C", "setting": "[25]", "value": 61.3, "unit": "%"}, {"measurement": "viability, T/C", "setting": "[26]", "value": 63.6, "unit": "%"}, {"measurement": "viability, T/C", "setting": "[27]", "value": 56.4, "unit": "%"}, {"measurement": "viability, T/C", "setting": "[28]", "value": 41.1, "unit": "%"}, {"measurement": "viability, T/C", "setting": "[29]", "value": 42.3, "unit": "%"}, {"measurement": "viability, T/C", "setting": "[30]", "value": 37, "unit": "%"}, {"measurement": "viability, T/C", "setting": "[31]", "value": 60.8, "unit": "%"}, {"measurement": "viability, T/C", "setting": "[32]", "value": 55.9, "unit": "%"}, {"measurement": "viability, T/C", "setting": "[33]", "value": 68.1, "unit": "%"}, {"measurement": "viability, T/C", "setting": "[34]", "value": 44.8, "unit": "%"}, {"measurement": "viability, T/C", "setting": "[35]", "value": 39, "unit": "%"}, {"measurement": "viability, T/C", "setting": "[36]", "value": 22.2, "unit": "%"}]}
